In US20250195672A1, “DENDRIMER COMPOSITIONS FOR TARGETED DELIVERY OF THERAPEUTICS TO NEURONS” (priority 2022, published 2025):
“Also recorded” adds a separate entry of the source.

Tested on: YFP-expressing cortical neurons
Experiment: GD2-Cy5 uptake in ex vivo cortical brain sections: neuronal activity and glucose transporter blockade
Assay type: cell-based, mouse
Conditions: 30 minutes pre-treatment in Mg2+ free ACSF: cytochalasin B 5 μM, glutor 10 μM, phlorizin 10 μM, GD2-Cy5 10 μg/ml
Procedure: FIG. 9A is scheme of the experiment in which 300 μm cortical brain sections were pre-treated for 30 minutes with control ACSF (Mg2+ free, increases neuronal firing) or ACSF containing Mg2+/NMDG (suppressed neuronal activity) or control ACSF with either cytochalasin B (5 μM) or glutor ([…]). After pre-treatment, brain sections were incubated with GD2-Cy5 (10 μg/ml) for 30 minutes followed by 10% formalin fixation and confocal imaging.
300 μm cortical brain sections were pre-treated for 30 minutes with Mg2+ free artificial cerebrospinal fluid (ACSF) (increases neuronal firing) or ACSF containing Mg2+/NMDG (suppressed neuronal activity) or Mg2+ free ACSF with cytochalasin B (5 μM) or glutor (10 μM) or phlorizin (10 μM). After pre-treatment, brain sections were incubated with GD2-Cy5 (10 μg/ml) for 30 minutes followed by formalin fixation and confocal imaging. Mean fluorescence intensities for GD-Cy5 were evaluated in YFP-expressing cortical neurons. Confocal images of fixed sections showing DAPI (nucleus), YFP (neurons) and GD2-Cy5 with different treatments were taken and analyzed.
CP rabbit kits or Thy1-YFP mice were deeply anesthetized with isoflurane and decapitated. Brains were removed and transferred to oxygenated (95% O2/5% CO2), ice-cold N-Methyl-D-glucamin (NMDG)-based buffer (Buffer1, in mM: 92 NMDG, 2.5 KCl, 10 MgSO4, 0.5 CaCl2, 1.2 NaH2PO4, 30 NaHCO3, 25 glucose, 20 HEPES, 5 sodium ascorbate, 3 sodium pyruvate, 2 thiourea; pH 7.4). Coronal brain slices ([…]) were then obtained using a vibratome (VT1200, Leica). Slices were first incubated in the NMDG-based solution at 34° C. for 10 minutes, then transferred and maintained in the same solution for an hour at room temperature before starting subsequent experiment. Dendrimer-Cy5 was added in 5 ml of Buffer2 (in mM: 125 NaCl, 2.5 KCl, 1 MgCl2, 2 CaCl2, 1.25 NaH2PO4, 26 NaHCO3, 20 glucose; pH 7.4) containing brain slices and incubated for 30 min while oxygenation at room temperature. […]

| SMILES | Effect of transporter blocker pre-treatment on GD2 uptake by neurons |
| --- | --- |
| C=C1[C@@H](C)[C@H]2[C@H](Cc3ccccc3)NC(=O)[C@]23OC(=O)/C=C/[C@H](O)CCC[C@@H](C)C/C=C/[C@H]3[C@@H]1O [cytochalasin B] | diminished GD2 uptake; also recorded: significantly decreased |
| C[C@@]1(C(=O)NCc2cccnc2)Cn2nc(-c3ccccc3)cc2C(=O)N1Cc1ccc(N2CCOCC2)cc1 [glutor] | diminished GD2 uptake; also recorded: significantly decreased |
| O=C(CCc1ccc(O)cc1)c1c(O)cc(O)cc1O[C@@H]1O[C@H](CO)[C@@H](O)[C@H](O)[C@H]1O [Phlorizin] | diminished GD2 uptake |
